Results as given in patent US10770169B2, “Method of providing a treatment to a subject based on a dynamic pathway map” (THE REGENTS OF THE UNIVERSITY OF CALIFORNIA, priority 2010, dated 2020).
Where two headings read alike, the source gives them in different places.

Assays:
breast cancer cell lines = assay: Association of growth rate and response (2-way ANCOVA); assay type: cell-based, human
Source text: To assess the effects of cell line class and growth rate on drug sensitivity, we performed a set of 2-way Analysis of Covariance (ANCOVA) tests, one for each of the three cell line classification schemes described above. […] We performed these analyses in R with the functions lm and ANOVA, which is available as part of the car package.

[1] = test system: TCR-activated CD4(+) T cells; conditions: cited from earlier work
[2] = test system: luminal, basal, claudin-low and ERBB2AMP breast cancer cell lines; assay: Associations of clinically relevant subtypes and response (non-parametric ANOVA or t-test on GI50 ranks); assay type: cell-based, human; conditions: Table 6; most sensitive subtype, FDR p<0.20
In short: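 GI50 values were compared between cell-line subtype groups by non-parametric ANOVA or t-test on ranks. P-values from three test sets were combined and FDR-corrected. Significant three-group effects were followed by post-hoc comparison of each group against all others, and FDR p<0.20 counted as significant.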

[3] = test system: panel of 55 breast cancer cell lines; assay: Cell growth inhibition assay (Cell Titer Glo, 72 h, 9 doses; GI50, TGI, LC50); assay type: cell-based, human; conditions: Homo sapiens, read-out: GI50 (converted)

With O=c1[nH]cc(F)c(=O)[nH]1 [5-FU, 5-florouracil] the “significance of subtype and doubling time in ANCOVA model” value (breast cancer cell lines; listed as 5-florouracil) was “not significant in the subtype test alone but showed strong significance in the ANCOVA model for both class and doubling time”, the “significance of subtype and doubling time in ANCOVA model” value (breast cancer cell lines; listed as 5′FU) was “strong effects of both subtype and growth rate on response” and the “response as a function of doubling time” value (breast cancer cell lines; luminal and basal cell lines) was “decreased as doubling time increased in both luminal and basal cell lines”.

For Cc1ccc(NC(=O)c2ccc(CN3CCN(C)CC3)cc2)cc1Nc1nccc(-c2cccnc2)n1 [imatinib], the interferon-gamma production [1] is given as “inhibit interferon-gamma production”.

With CCN(CC)CCCCNc1ncc2cc(-c3cc(OC)cc(OC)c3)c(NC(=O)NC(C)(C)C)nc2n1 [PD173074] the Subtype specificity [2] was “Claudin-low”, the GI50 ([3]; 600MPE cell line, censored GI50 values) was 9.77 µM and the GI50 ([3]; AU565, AU565 cell line, censored GI50 values) was 7.41 µM. For the same molecule, the GI50 ([3]; AU565, cell line AU565) was 7.41 µM, the GI50 ([3]; BT-20, BT20 cell line, censored GI50 values) was 15.8 µM and the GI50 ([3]; BT-20, cell line BT20) was 15.8 µM. It also gave a GI50 ([3]; BT-474, cell line BT474) of 33.1 µM, a GI50 ([3]; BT-549, BT549 cell line, censored GI50 values) of 7.41 µM and a GI50 ([3]; BT-549, cell line BT549) of 7.41 µM. The GI50 ([3]; HCC38, cell line HCC38) was 2.95 µM, the GI50 ([3]; HCC70, cell line HCC70) was 7.08 µM and the GI50 ([3]; HCC202, cell line HCC202) was 8.51 µM. The GI50 ([3]; HCC1143, HCC1143 cell line, censored GI50 values) was 13.5 µM, the GI50 ([3]; HCC1143, cell line HCC1143) was 13.5 µM and the GI50 ([3]; HCC1187, HCC1187 cell line, censored GI50 values) was 10.7 µM. It also gave a GI50 ([3]; HCC1187, cell line HCC1187) of 10.7 µM, a GI50 ([3]; HCC1395, HCC1395 cell line, censored GI50 values) of 0.617 µM and a GI50 ([3]; HCC1395, cell line HCC1395) of 0.617 µM. It also gave a GI50 ([3]; HCC1419, HCC1419 cell line, censored GI50 values) of 4.47 µM, a GI50 ([3]; HCC1419, cell line HCC1419) of 4.47 µM and a GI50 ([3]; HCC1428, HCC1428 cell line, censored GI50 values) of 6.76 µM. It also gave a GI50 ([3]; HCC1428, cell line HCC1428) of 6.76 µM, a GI50 ([3]; HCC1500, cell line HCC1500) of 24.5 µM and a GI50 ([3]; HCC1806, HCC1806 cell line, censored GI50 values) of 5.01 µM. The GI50 ([3]; HCC1806, cell line HCC1806) was 5.01 µM, the GI50 ([3]; HCC1937, HCC1937 cell line, censored GI50 values) was 7.59 µM and the GI50 ([3]; HCC1937, cell line HCC1937) was 7.59 µM. It also gave a GI50 ([3]; HCC1954, HCC1954 cell line, censored GI50 values) of 7.59 µM, a GI50 ([3]; HCC1954, cell line HCC1954) of 7.59 µM and a GI50 ([3]; MDA-MB-157, cell line MDAMB157) of 2.34 µM. For the same molecule, the GI50 ([3]; MDA-MB-231, cell line MDAMB231) was 6.76 µM, the GI50 ([3]; MDA-MB-361, cell line MDAMB361) was 15.1 µM and the GI50 ([3]; MDA-MB-436, cell line MDAMB436) was 6.46 µM. It also gave a GI50 ([3]; MDA-MB-453, cell line MDAMB453) of 1.95 µM, a GI50 ([3]; MDA-MB-468, cell line MDAMB468) of 6.61 µM and a GI50 ([3]; SK-BR-3, cell line SKBR3) of 7.94 µM. The GI50 ([3]; SUM52PE, cell line SUM52PE) was 0.0229 µM, the GI50 ([3]; SUM149PT, cell line SUM149PT) was 9.12 µM and the GI50 ([3]; SUM-159-PT, cell line SUM159PT) was 6.46 µM. For the same molecule, the GI50 ([3]; T47D, cell line T47D) was 13.5 µM, the GI50 ([3]; UACC-812, cell line UACC812) was 7.08 µM and the GI50 ([3]; UACC-893, cell line UACC893) was 6.92 µM. It also gave a GI50 ([3]; ZR-75-1, cell line ZR751) of 15.5 µM, a GI50 ([3]; cell line 600MPE) of 9.77 µM and a GI50 ([3]; cell line HCC2185) of 29.5 µM. For the same molecule, the GI50 ([3]; cell line HCC3153) was 15.5 µM, the GI50 ([3]; cell line LY2) was 7.41 µM and the GI50 ([3]; cell line MDAMB134V) was 18.6 µM. For the same molecule, the GI50 ([3]; cell line SUM1315MO) was 3.39 µM.

In the case of CS(=O)(=O)CCNCc1ccc(-c2ccc3ncnc(Nc4ccc(OCc5cccc(F)c5)c(Cl)c4)c3c2)o1 [Lapatinib], the Subtype specificity [2] is reported as “Luminal/ERBB2AMP”, the GI50 ([3]; AU565, cell line AU565, censored GI50 values) is reported as 0.398 µM and the GI50 ([3]; AU565, cell line AU565) is reported as 0.398 µM. The GI50 ([3]; BT-20, cell line BT20) was 16.6 µM, the GI50 ([3]; BT-474, cell line BT474, censored GI50 values) was 0.398 µM and the GI50 ([3]; BT-474, cell line BT474) was 0.398 µM. The GI50 ([3]; BT-483, cell line BT483) was 16.6 µM, the GI50 ([3]; BT-549, cell line BT549) was 16.6 µM and the GI50 ([3]; CAMA-1, cell line CAMA1) was 16.6 µM. It also gave a GI50 ([3]; HCC38, cell line HCC38) of 16.6 µM, a GI50 ([3]; HCC70, cell line HCC70) of 11 µM and a GI50 ([3]; HCC202, cell line HCC202, censored GI50 values) of 0.759 µM. It also gave a GI50 ([3]; HCC202, cell line HCC202) of 0.759 µM, a GI50 ([3]; HCC1143, cell line HCC1143) of 16.6 µM and a GI50 ([3]; HCC1187, cell line HCC1187) of 16.6 µM. The GI50 ([3]; HCC1395, cell line HCC1395) was 16.6 µM, the GI50 ([3]; HCC1419, cell line HCC1419, censored GI50 values) was 0.269 µM and the GI50 ([3]; HCC1419, cell line HCC1419) was 0.269 µM. The GI50 ([3]; HCC1428, cell line HCC1428) was 16.6 µM, the GI50 ([3]; HCC1500, cell line HCC1500) was 16.6 µM and the GI50 ([3]; HCC1806, cell line HCC1806) was 16.6 µM. It also gave a GI50 ([3]; HCC1937, cell line HCC1937) of 16.6 µM, a GI50 ([3]; HCC1954, cell line HCC1954, censored GI50 values) of 2.75 µM and a GI50 ([3]; HCC1954, cell line HCC1954) of 2.75 µM. The GI50 ([3]; MCF7, cell line MCF7) was 16.6 µM, the GI50 ([3]; MDA-MB-157, cell line MDAMB157) was 16.6 µM and the GI50 ([3]; MDA-MB-175-VII, cell line MDAMB175VII, censored GI50 values) was 0.933 µM. It also gave a GI50 ([3]; MDA-MB-231, cell line MDAMB231) of 16.6 µM, a GI50 ([3]; MDA-MB-361, cell line MDAMB361, censored GI50 values) of 8.91 µM and a GI50 ([3]; MDA-MB-361, cell line MDAMB361) of 8.91 µM. It also gave a GI50 ([3]; MDA-MB-436, cell line MDAMB436) of 16.6 µM, a GI50 ([3]; MDA-MB-453, cell line MDAMB453, censored GI50 values) of 8.91 µM and a GI50 ([3]; MDA-MB-453, cell line MDAMB453) of 8.91 µM. It also gave a GI50 ([3]; MDA-MB-468, cell line MDAMB468) of 16.6 µM, a GI50 ([3]; SK-BR-3, cell line SKBR3, censored GI50 values) of 0.513 µM and a GI50 ([3]; SK-BR-3, cell line SKBR3) of 0.513 µM. It also gave a GI50 ([3]; SUM52PE, cell line SUM52PE) of 16.6 µM, a GI50 ([3]; SUM225CWN, cell line SUM225CWN, censored GI50 values) of 0.692 µM and a GI50 ([3]; SUM225CWN, cell line SUM225CWN) of 0.692 µM. The GI50 ([3]; T47D, cell line T47D) was 16.6 µM, the GI50 ([3]; UACC-812, cell line UACC812, censored GI50 values) was 0.457 µM and the GI50 ([3]; UACC-812, cell line UACC812) was 0.457 µM. It also gave a GI50 ([3]; UACC-893, cell line UACC893, censored GI50 values) of 1.82 µM, a GI50 ([3]; UACC-893, cell line UACC893) of 1.82 µM and a GI50 ([3]; ZR-75-1, cell line ZR751) of 16.6 µM. It also gave a GI50 ([3]; ZR-75B, cell line ZR75B) of 16.6 µM, a GI50 ([3]; cell line 600MPE) of 16.6 µM and a GI50 ([3]; cell line HCC2185, censored GI50 values) of 3.8 µM. It also gave a GI50 ([3]; cell line HCC2185) of 3.8 µM, a GI50 ([3]; cell line HCC3153) of 16.6 µM and a GI50 ([3]; cell line MDAMB175V) of 0.933 µM. It also gave a GI50 ([3]; cell line SUM1315MO) of 15.5 µM.
